Data on eleven compounds can be found in patent publication US9868738B2, “Diazine-fused amidines as BACE inhibitors, compositions, and their use” (Merck Sharp & Dohme Corp., priority 2014, dated 2018).

Assay [1] addresses soluble human BACE1 catalytic domain (Homo sapiens (Human), UniProt P56817). Put plainly: BACE-1 Ki Assay (BACE-1 HTRF FRET Assay). Type of assay: biochemical. Particulars: Ki calculated from IC50 using the Cheng-Prusoff equation; QSY7-APPswe-Eu substrate 200 nM, pH 5.0. The method, then:
In another embodiment, the compounds of the invention comprise the example compounds shown in the table below, or a tautomer thereof, or a pharmaceutically acceptable salt of said compound or said tautomer. Examples 2 to 42 were prepared using the method similar to Ex. 1. Example 44 to 51 were synthesized using the method similar to Ex. 43. BACE-1 values reported in this table were measured using BACE-1 Ki Assay (BACE-1 HTRF FRET Assay).
• Reagents: Na^+-Acetate pH 5.0; 1% Brij-35; Glycerol; Dimethyl Sulfoxide (DMSO); Recombinant human soluble BACE1 catalytic domain (>95% pure); APP Swedish mutant peptide substrate (QSY7-APP^swe-Eu): QSY7-EISEVNLDAEFC-Europium-amide.
A homogeneous time-resolved FRET assay can be used to determine IC50 values for inhibitors of the soluble human BACE1 catalytic domain. This assay monitors the increase of 620 nm fluorescence that resulted from BACE1 cleavage of an APPswedish APP^swe mutant peptide FRET substrate (QSY7-EISEVNLDAEFC-Europium-amide). This substrate contains an N-terminal QSY7 moiety that serves as a quencher of the C-terminal Europium fluorophore (620 nm Em). In the absence of enzyme activity, 620 nm fluorescence is low in the assay and increased linearly over 3 hours in the presence of uninhibited BACE1 enzyme. Inhibition of BACE1 cleavage of the QSY7-APP^swe-Eu substrate by inhibitors is manifested as a suppression of 620 nm fluorescence.
Varying concentrations of inhibitors at 3× the final desired concentration in a volume of 10 ul are preincubated with purified human BACE1 catalytic domain (3 nM in 10 μl) for 30 minutes at 30° C. in reaction buffer containing 20 mM Na-Acetate pH 5.0, 10% glycerol, 0.1% Brij-35 and 7.5% DSMO. Reactions are initiated by addition of 10 μl of 600 nM QSY7-APP^swe-Eu substrate (200 nM final) to give a final reaction volume of 30 μl in a 384 well Nunc HTRF plate. The reactions are incubated at 30° C. for 1.5 hours. The 620 nm fluorescence is then read on a Rubystar HTRF plate reader (BMG Labtechnologies) using a 50 millisecond delay followed by a 400 millisecond acquisition time window. Inhibitor IC50 values are derived from non-linear regression analysis of concentration response curves. Ki values are then calculated from IC50 values using the Cheng-Prusoff equation using a previously determined […] of 8 μM for the QSY7-APP^swe-Eu substrate at BACE1.

The target of assay [2] is purified human autoBACE-2 (Homo sapiens (Human), UniProt Q9Y5Z0). The experiment in a line: BACE-2 Assay (BACE-HTRF assay). In kind it is biochemical. Particulars: Ki calculated from IC50 using the Cheng-Prusoff equation; QSY7-EISEVNLDAEFC-Eu-amide substrate 200 nM, pH 5.0. The method, then: Inhibitor IC50s at purified human autoBACE-2 are determined in a time-resolved endpoint proteolysis assay that measures hydrolysis of the QSY7-EISEVNLDAEFC-Eu-amide FRET peptide substrate (BACE-HTRF assay). BACE-mediated hydrolysis of this peptide results in an increase in relative fluorescence (RFU) at 620 nm after excitation with 320 nm light. Inhibitor compounds, prepared at 3× the desired final concentration in 1×BACE assay buffer (20 mM sodium acetate pH 5.0, 10% glycerol, 0.1% Brij-35) supplemented with 7.5% DMSO are pre-incubated with an equal volume of autoBACE-2 enzyme diluted in 1×BACE assay buffer (final enzyme concentration 1 nM) in black 384-well NUNC plates for 30 minutes at 30° C. […] DMSO is present at […] final concentration in the assay. Following laser excitation of sample wells at 320 nm, the fluorescence signal at 620 nm is collected for 400 ms following a 50 μs delay on a RUBYstar HTRF plate reader (BMG Labtechnologies). Raw RFU data is normalized to maximum (1.0 nM BACE/DMSO) and minimum (no enzyme/DMSO) RFU values. IC50s are determined by nonlinear regression analysis (sigmoidal dose response, variable slope) of percent inhibition data with minimum and maximum values set to 0 and 100 percent respectively. Similar IC50s are obtained when using raw RFU data. The Ki values are calculated from the IC50 using the Cheng-Prusoff equation.
purified human autoBACE-2, sequence (Q9Y5Z0 63-473 limits assumed): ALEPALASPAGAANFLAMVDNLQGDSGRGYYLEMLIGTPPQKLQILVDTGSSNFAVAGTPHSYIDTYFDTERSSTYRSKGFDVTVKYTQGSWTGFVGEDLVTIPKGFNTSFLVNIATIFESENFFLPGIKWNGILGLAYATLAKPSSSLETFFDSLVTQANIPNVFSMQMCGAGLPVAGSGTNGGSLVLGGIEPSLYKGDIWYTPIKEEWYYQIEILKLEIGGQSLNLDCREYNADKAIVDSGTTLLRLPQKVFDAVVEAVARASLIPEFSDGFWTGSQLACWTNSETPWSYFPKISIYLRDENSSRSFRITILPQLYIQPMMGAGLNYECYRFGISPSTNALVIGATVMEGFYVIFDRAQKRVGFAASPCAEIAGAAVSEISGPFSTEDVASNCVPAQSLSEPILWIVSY

soluble human BACE1 catalytic domain, sequence (P56817 75-416): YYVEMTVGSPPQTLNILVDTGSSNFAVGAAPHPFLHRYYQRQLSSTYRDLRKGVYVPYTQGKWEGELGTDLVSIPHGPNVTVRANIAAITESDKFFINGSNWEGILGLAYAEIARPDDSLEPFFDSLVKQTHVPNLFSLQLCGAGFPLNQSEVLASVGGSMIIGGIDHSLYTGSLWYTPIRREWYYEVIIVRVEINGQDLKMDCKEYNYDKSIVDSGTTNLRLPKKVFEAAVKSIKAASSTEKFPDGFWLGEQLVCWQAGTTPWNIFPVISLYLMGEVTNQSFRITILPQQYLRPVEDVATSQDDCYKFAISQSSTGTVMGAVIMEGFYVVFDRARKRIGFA

Take `Cc1ncc2c(n1)C[C@@](C)(c1sc(-c3ccc(F)c(C#N)c3)cc1Cl)NC2=N` [Example 27, 5-{4-chloro-5-[(7S)-5-imino-2,7-dimethyl-5,6,7,8-tetrahydropyrido[4,3-d]pyrimidin-7-yl]thiophen-2-yl}-2-fluorobenzonitrile]: the inhibition constant Ki (in general, the equilibrium dissociation constant of an inhibitor or competing ligand from its target) in assay [1] was 52.1 nM; in assay [2] it was 28.3 nM.

Take `Cc1ncc2c(n1)C[C@@](C)(c1sc(-c3cc(F)cc(-c4nnco4)c3)cc1Cl)NC2=N` [Example 28, (7S)-7-{3-chloro-5-[3-fluoro-5-(1,3,4-oxadiazol-2-yl)phenyl]thiophen-2-yl}-2,7-dimethyl-7,8-dihydropyrido[4,3-d]pyrimidin-5(6H)-imine]: the Ki in assay [1] is 16.6 nM; in assay [2] it was 24.4 nM.

As to `Cc1ncc2c(n1)C[C@@](C)(c1sc(-c3cccc(-c4ncno4)c3)cc1Cl)NC2=N` [Example 29, (7S)-7-{3-chloro-5-[3-(1,2,4-oxadiazol-5-yl)phenyl]thiophen-2-yl}-2,7-dimethyl-7,8-dihydropyrido[4,3-d]pyrimidin-5(6H)-imine], the Ki was 482 nM in assay [1] and 79.7 nM in assay [2].

For the compound `C[C@@]1(c2cc(-c3cccc(C#N)c3)cs2)Cc2nc(C3CC3)ncc2C(=N)N1` [Example 32, 3-{5-[(7S)-2-cyclopropyl-5-imino-7-methyl-5,6,7,8-tetrahydropyrido[4,3-d]pyrimidin-7-yl]thiophen-3-yl}benzonitrile], the inhibition constant Ki in assay [1] was 128 nM; in assay [2] it was 65.6 nM.

`COc1cccc2cc(-c3csc([C@]4(C)Cc5nc(C6CC6)ncc5C(=N)N4)c3)[nH]c12` [Example 33, (7S)-2-cyclopropyl-7-[4-(7-methoxy-1H-indo1-2-yl)thiophen-2-yl]-7-methyl-7,8-dihydropyrido[4,3-d]pyrimidin-5(6H)-imine]: the inhibition constant Ki in assay [1] was 38.2 nM; in assay [2], 4.8 nM.

For `C[C@@]1(c2cc(-c3cccc(-c4nnco4)c3)cs2)Cc2nc(C3CC3)ncc2C(=N)N1` [Example 34, (7S)-2-cyclopropyl-7-methyl-7-{4-[3-(1,3,4-oxadiazol-2-yl)phenyl]thiophen-2-yl}-7,8-dihydropyrido[4,3-d]pyrimidin-5(6H)-imine], the inhibition constant Ki in assay [1] is 85 nM; in assay [2], 215 nM.

For `C[C@@]1(c2cc(-c3cncc(C#N)c3)cs2)Cc2nc(C3CC3)ncc2C(=N)N1` [Example 35, 5-{5-[(7S)-2-cyclopropyl-5-imino-7-methyl-5,6,7,8-tetrahydropyrido[4,3-d]pyrimidin-7-yl]thiophen-3-yl}pyridine-3-carbonitrile], the results for the Ki in assay [1] and in assay [2] were 224 nM and 142 nM, respectively.

In the case of `C[C@@]1(c2sc(-c3cccc(C#N)c3)cc2Cl)Cc2nc(C3CC3)ncc2C(=N)N1` [Example 36, 3-{4-chloro-5-[(7S)-2-cyclopropyl-5-imino-7-methyl-5,6,7,8-tetrahydropyrido[4,3-d]pyrimidin-7-yl]thiophen-2-yl}benzonitrile], the Ki in assay [1] was 48.9 nM; in assay [2], 21.5 nM.

For `C[C@@]1(c2sc(-c3cncc(C#N)c3)cc2Cl)Cc2nc(C3CC3)ncc2C(=N)N1` [Example 37, 5-{4-chloro-5-[(7S)-2-cyclopropyl-5-imino-7-methyl-5,6,7,8-tetrahydropyrido[4,3-d]pyrimidin-7-yl]thiophen-2-yl}pyridine-3-carbonitrile], the values for the Ki in assay [1] and in assay [2] were 94.7 nM and 44.2 nM, respectively.

As for `COc1cccc2cc(-c3cc(Cl)c([C@]4(C)Cc5nc(C6CC6)ncc5C(=N)N4)s3)[nH]c12` [Example 38, (7S)-7-[3-chloro-5-(7-methoxy-1H-indo1-2-yl)thiophen-2-yl]-2-cyclopropyl-7-methyl-7,8-dihydropyrido[4,3-d]pyrimidin-5(6H)-imine], the Ki was 22.3 nM in assay [1] and 2 nM in assay [2].

On to `COc1cccc2cc(-c3csc([C@]4(C)Cc5nc(C(F)(F)F)ncc5C(=N)N4)c3)[nH]c12` [Example 39, (7S)-7-[4-(7-methoxy-1H-indo1-2-yl)thiophen-2-yl]-7-methyl-2-(trifluoromethyl)-7,8-dihydropyrido[4,3-d]pyrimidin-5(6H)-imine], for which the Ki in assay [1] was 28.9 nM; in assay [2], 1.5 nM.
